pKi: −log10 of the molar value. Counter-ions that a name gives are not always drawn.
Legend:
[1] = biological target: Nicotinic acetylcholine receptor (Rattus leucopus, UniProt Q62594)
[2] = biological target: Neuronal acetylcholine receptor subunit alpha-9 (Rattus norvegicus, UniProt P43144)
[3] = biological target: Neuronal acetylcholine receptor subunit alpha-4 (Rattus norvegicus, UniProt P09483)
[4] = biological target: Neuronal acetylcholine receptor subunit alpha-7 (Rattus norvegicus, UniProt Q05941)
[5] = biological target: Neuronal acetylcholine receptor subunit alpha-3 (Rattus norvegicus, UniProt P04757)
Sequence of Neuronal acetylcholine receptor subunit alpha-3 (P04757 whole entry): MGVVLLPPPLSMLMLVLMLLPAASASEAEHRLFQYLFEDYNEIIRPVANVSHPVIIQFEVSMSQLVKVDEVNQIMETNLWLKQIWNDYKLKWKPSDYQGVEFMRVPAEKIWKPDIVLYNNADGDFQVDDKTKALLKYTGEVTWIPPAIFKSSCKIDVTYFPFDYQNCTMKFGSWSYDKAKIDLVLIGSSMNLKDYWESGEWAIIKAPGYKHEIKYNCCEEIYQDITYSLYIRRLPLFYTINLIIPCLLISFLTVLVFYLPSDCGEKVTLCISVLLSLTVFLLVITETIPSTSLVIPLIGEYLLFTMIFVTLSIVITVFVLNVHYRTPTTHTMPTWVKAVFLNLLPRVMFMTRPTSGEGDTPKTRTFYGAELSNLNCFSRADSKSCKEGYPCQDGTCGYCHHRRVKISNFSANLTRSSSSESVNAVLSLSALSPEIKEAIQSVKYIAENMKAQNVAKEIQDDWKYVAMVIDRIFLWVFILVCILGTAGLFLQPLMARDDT

Sequence of Neuronal acetylcholine receptor subunit alpha-7 (Q05941 whole entry): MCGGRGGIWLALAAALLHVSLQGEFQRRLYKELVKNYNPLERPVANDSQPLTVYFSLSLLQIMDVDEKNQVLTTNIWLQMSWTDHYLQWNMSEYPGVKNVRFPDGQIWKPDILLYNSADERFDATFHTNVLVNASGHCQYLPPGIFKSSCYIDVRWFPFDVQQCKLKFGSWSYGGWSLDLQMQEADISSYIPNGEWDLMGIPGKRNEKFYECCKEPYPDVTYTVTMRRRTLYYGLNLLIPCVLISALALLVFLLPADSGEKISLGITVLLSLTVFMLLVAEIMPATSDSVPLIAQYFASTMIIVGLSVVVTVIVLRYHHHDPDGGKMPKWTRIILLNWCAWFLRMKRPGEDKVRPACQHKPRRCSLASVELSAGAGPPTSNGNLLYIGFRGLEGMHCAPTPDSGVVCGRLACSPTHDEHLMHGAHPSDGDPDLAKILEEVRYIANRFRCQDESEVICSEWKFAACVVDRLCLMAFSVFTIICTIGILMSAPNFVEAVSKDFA
Sequence of Neuronal acetylcholine receptor subunit alpha-4 (P09483 whole entry): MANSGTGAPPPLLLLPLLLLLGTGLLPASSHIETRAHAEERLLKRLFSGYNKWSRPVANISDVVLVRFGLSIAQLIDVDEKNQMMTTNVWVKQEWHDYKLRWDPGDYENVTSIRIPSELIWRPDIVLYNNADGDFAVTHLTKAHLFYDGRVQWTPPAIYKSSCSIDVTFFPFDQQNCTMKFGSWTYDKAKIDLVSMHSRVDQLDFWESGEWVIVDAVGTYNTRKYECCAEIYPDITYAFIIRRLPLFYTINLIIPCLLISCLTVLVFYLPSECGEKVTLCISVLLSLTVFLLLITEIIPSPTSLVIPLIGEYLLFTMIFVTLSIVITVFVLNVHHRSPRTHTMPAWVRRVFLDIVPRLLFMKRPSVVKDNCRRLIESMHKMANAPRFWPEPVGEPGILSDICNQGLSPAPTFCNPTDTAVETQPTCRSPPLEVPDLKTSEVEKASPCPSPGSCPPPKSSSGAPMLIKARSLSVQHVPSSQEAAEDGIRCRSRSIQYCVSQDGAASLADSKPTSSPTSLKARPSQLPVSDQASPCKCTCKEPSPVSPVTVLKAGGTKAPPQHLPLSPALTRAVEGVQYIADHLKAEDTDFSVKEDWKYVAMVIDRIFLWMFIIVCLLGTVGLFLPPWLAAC
Sequence of Neuronal acetylcholine receptor subunit alpha-9 (P43144 whole entry): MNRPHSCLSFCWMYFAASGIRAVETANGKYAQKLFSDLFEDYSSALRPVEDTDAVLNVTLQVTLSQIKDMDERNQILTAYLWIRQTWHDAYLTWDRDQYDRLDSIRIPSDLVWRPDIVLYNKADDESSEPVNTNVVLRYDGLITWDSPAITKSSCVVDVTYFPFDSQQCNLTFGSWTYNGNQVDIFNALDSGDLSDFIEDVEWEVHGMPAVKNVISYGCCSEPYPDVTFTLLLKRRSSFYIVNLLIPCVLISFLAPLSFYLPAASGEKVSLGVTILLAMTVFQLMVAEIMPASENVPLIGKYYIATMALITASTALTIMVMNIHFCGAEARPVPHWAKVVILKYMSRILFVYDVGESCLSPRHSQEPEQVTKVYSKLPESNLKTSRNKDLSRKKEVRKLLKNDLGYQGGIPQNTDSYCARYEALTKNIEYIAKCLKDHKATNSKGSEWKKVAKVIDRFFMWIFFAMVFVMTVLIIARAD
Sequence of Nicotinic acetylcholine receptor (Q62594 whole entry): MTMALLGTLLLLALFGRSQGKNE

CNC(=O)Oc1ccc2c(c1)[C@]1(C)CCN(C)C1N2C (stereo partly drawn)
pKi [1]: < 5.00

c1cncc(OC[C@@H]2CCN2)c1
pKi [2]: 6.49
pKi [3]: 11.00
pKi [4]: 7.77

CN1[C@@H]2CC[C@H]1CC(OC(=O)[C@H](CO)c1ccccc1)C2 (stereo partly drawn) [CAS_51-55-8]
pKi [1]: < 5.00

O=C(CCCN1CCC(O)(c2ccc(Cl)cc2)CC1)c1ccc(F)cc1 [4-[4-(4-Chloro-phenyl)-4-hydroxy-piperidin-1-yl]-1-(4-fluoro-phenyl)-butan-1-one;propionate(HCl)]
pKi [1]: < 5.00

O=c1cccc2n1C[C@H]1CNC[C@H]2C1 [(1S,9R)-7,11-diazatricyclo[7.3.1.0~2,7~]trideca-2,4-dien-6-one]
pKi [2]: 6.72
pKi [5]: 7.27
pKi [3]: 9.74
pKi [4]: 6.59

COc1cc2c3cc1Oc1cc(ccc1O)CC1c4c(cc(OC)c(O)c4Oc4ccc(cc4)CC3[N+](C)(C)CC2)CC[N+]1(C)C (stereo not drawn) [CAS_8063-06-7]
pKi [1]: 6.14

C=CCN1CC[C@]23c4c5ccc(O)c4O[C@H]2C(=O)CC[C@@]3(O)[C@H]1C5 [[17-(2,3-3H-2-propenyl)]-4,5a-epoxy-3,14-dihydroxymorphinan-6-one]
pKi [1]: < 5.00

C=C(C=O)C[C@H]1C[C@H](O)[C@]2(C)O[C@@H]3C[C@@H]4O[C@@H]5C[C@]6(C)O[C@]7(C)CC[C@@H]8O[C@@H]9C[C@]%10(C)O[C@@H]%11C(C)=CC(=O)O[C@H]%11C[C@H]%10O[C@H]9C[C@@H](C)[C@H]8O[C@H]7C[C@H]6O[C@@]5(C)C/C=C\[C@H]4O[C@H]3C[C@H]2O1
pKi [1]: 5.60

Ic1ccc(C2CC3CCC2N3)cn1 (stereo not drawn) [IPH]
pKi [2]: 8.19
pKi [5]: 9.96
pKi [3]: 10.70
pKi [4]: 7.52

CN1CCc2cccc3c2[C@H]1Cc1ccc(O)c(O)c1-3 [APOKYN]
pKi [1]: < 5.00
